Measured values published in PubChem BioAssay (NCI).
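Test compounds were applied to cells in 96-well plates for 48 hours at 5 doses. Abbreviation: GI50, concentration required for 50% inhibition of growth. TGI is the concentration that stops growth completely.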

Tests used:
Experiment in all cases: NCI tumour cell line growth inhibition, 48 h
EKVX NSCLC = tested on: EKVX NSCLC
SK-MEL-2 melanoma = tested on: SK-MEL-2 melanoma
SN12C renal = tested on: SN12C renal
CCRF-CEM leukemia = tested on: CCRF-CEM leukemia
HCT-116 colon = tested on: HCT-116 colon
SW-620 colon = tested on: SW-620 colon
MALME-3M melanoma = tested on: MALME-3M melanoma
DU-145 prostate = tested on: DU-145 prostate
MDA-MB-435 = tested on: MDA-MB-435
NCI-H226 lung = tested on: NCI-H226 lung

| Structure (SMILES) | TGI (EKVX NSCLC) [µM] | TGI (SK-MEL-2 melanoma) [µM] | TGI (SN12C renal) [µM] | TGI (CCRF-CEM leukemia) [µM] | TGI (HCT-116 colon) [µM] | TGI (SW-620 colon) [µM] | TGI (MALME-3M melanoma) [µM] | TGI (DU-145 prostate) [µM] | TGI (MDA-MB-435) [µM] | TGI (NCI-H226 lung) [µM] | GI50 (EKVX NSCLC) [µM] | GI50 (MDA-MB-435) [µM] | GI50 (SK-MEL-2 melanoma) [µM] | GI50 (SN12C renal) [µM] | GI50 (CCRF-CEM leukemia) [µM] | GI50 (SW-620 colon) [µM] | GI50 (NCI-H226 lung) [µM] | GI50 (MALME-3M melanoma) [µM] | GI50 (DU-145 prostate) [µM] |
| --- | --- | --- | --- | --- | --- | --- | --- | --- | --- | --- | --- | --- | --- | --- | --- | --- | --- | --- | --- |
| Cc1ccc(S(=O)(=O)OCC(=O)O)cc1 | > 100 | > 100 | > 100 | > 100 | > 100 | > 100 | > 100 | > 100 |  |  |  |  |  |  |  |  |  |  |  |
| Cc1cn(C2CC(n3cc(Cn4cc(Br)c(=O)[nH]c4=O)nn3)C(CO)O2)c(=O)[nH]c1=O (stereo not drawn) | > 100 | > 100 | > 100 | > 100 | > 100 | > 100 | > 100 | > 100 | > 100 |  |  |  |  |  |  |  |  |  |  |
| O=C1Nc2c(ccc(Cl)c2I)C1=O | 36.8 | 27.7 | 30.9 | 60.9 | 33.4 | 45.6 | 28.3 |  |  | 46.4 |  |  |  |  |  |  |  |  |  |
| Cc1ccn2c(=O)cc(-c3ccccc3)nc2c1 | > 100 |  | > 100 | > 100 | > 100 | > 100 | > 100 | > 100 |  | > 100 |  |  |  |  |  |  |  |  |  |
| CCOC(=O)c1ccc(N2C(=S)N(C(=O)c3ccccc3)C(=Nc3ccccc3)C2=Nc2ccccc2)cc1 | > 100 | > 100 | > 100 |  |  | > 100 | > 100 | > 100 | > 100 | 52.7 |  |  |  |  |  |  |  |  |  |
| Cc1ccc2nc(Cl)c(/C=N/N3C(=O)/C(=C/c4ccccc4S)N=C3c3ccccc3)cc2c1 | > 100 | 52.2 | > 100 | > 100 | > 100 | > 100 |  | > 100 | 31.8 |  |  |  |  |  |  |  |  |  |  |
| C=CCCC(=O)CC(O)(C(F)(F)F)C(F)(F)F | > 100 | > 100 |  | > 100 | > 100 | > 100 | > 100 | > 100 | > 100 | > 100 |  |  |  |  |  |  |  |  |  |
| NC1=NS(=O)(=O)Nc2nc(-c3ccc([N+](=O)[O-])cc3)[nH]c21 |  | > 100 | > 100 | > 100 | > 100 | > 100 | > 100 |  |  |  |  |  |  |  |  |  |  |  |  |
| CC(=O)Nc1cc2c(s1)CCC1CC(=O)NN=C21 (stereo not drawn) | > 100 | > 100 | > 100 | > 100 | > 100 | > 100 | > 100 |  |  | > 100 |  |  |  |  |  |  |  |  |  |
| O=C(Cc1ccccc1)NN1C(=O)/C(=C\c2cccc(O)c2)SC1=Nc1ccccc1 | > 100 | > 100 | > 100 |  | > 100 | > 100 |  | > 100 | > 100 | > 100 |  |  |  |  |  |  |  |  |  |
| CCN1C(=O)C(=C/C=C/c2ccc([N+](=O)[O-])cc2)C(=O)N(CC)C1=S | 62.7 | 65.3 | 57.3 | > 100 | 31.9 | 36.8 |  | 33.3 | 47.7 | > 100 |  |  |  |  |  |  |  |  |  |
| C[C@]12CCc3nc(Nc4ccccc4)sc3C1=CC[C@@H]1[C@@H]2CC[C@]2(C)/C(=N/NC(N)=S)CC[C@@H]12 | > 100 | > 100 | > 100 | > 100 |  | > 100 | > 100 | > 100 | > 100 | 5.71 | 19.2 | 3.05 | 5.89 | 3.52 | 1.98 | 3.09 | 2.07 | 3 | 2.96 |
| CC(C)C(=O)/C=C/c1ccc(Br)cc1 | 50.9 | 29.7 | 28.5 | 21.5 | 17.4 | 23.1 |  |  |  |  |  |  |  |  |  |  |  |  |  |
| O=C1CCCCC(=O)OC2(CCCCC2=O)CC1 (stereo not drawn) |  | > 100 | > 100 | > 100 | > 100 | > 100 | > 100 | > 100 | > 100 | > 100 |  |  |  |  |  |  |  |  |  |
| CC1(CF)SCc2nc3ccccc3n21 (stereo not drawn) | > 100 |  | > 100 |  | > 100 | > 100 | > 100 | > 100 | > 100 | > 100 |  |  |  |  |  |  |  |  |  |
| Nc1ccc(N=Nc2ccccc2)cc1 | > 100 | 68.4 | > 100 | > 100 | > 100 | > 100 | > 100 |  | > 100 | > 100 |  |  |  |  |  |  |  |  |  |
| CC1Cn2c(nc3ccccc32)NC1=O (stereo not drawn) | > 100 | > 100 |  | > 100 | > 100 | > 100 | > 100 |  | > 100 | > 100 |  |  |  |  |  |  |  |  |  |
| NC1=NS(=O)(=O)Nc2nc(-c3ccc(Cl)cc3)c(-c3ccc(Cl)cc3)nc21 |  |  | > 100 | > 100 | > 100 | > 100 | > 100 |  |  |  |  |  |  |  |  |  |  |  |  |
| CC1=COC(C)(C=C(C#N)C#N)CC1 (stereo not drawn) | > 100 |  | > 100 | > 100 | > 100 | > 100 | > 100 | > 100 | > 100 | > 100 |  |  |  |  |  |  |  |  |  |
| COc1ccc(O)cc1 | > 100 | > 100 | > 100 | > 100 | > 100 | > 100 | > 100 |  |  | > 100 |  |  |  |  |  |  |  |  |  |
| Nn1c(CCCCCCCCc2nnc(COc3ccc(Cl)cc3)n2N)nnc1COc1ccc(Cl)cc1 | > 100 | > 100 | > 100 |  | > 100 | > 100 | > 100 | > 100 | > 100 | > 100 |  |  |  |  |  |  |  |  |  |
| COC(=O)[C@H](Cc1ccccc1)NC(=O)[C@H](Cc1ccccc1)NC(=O)[C@@H]1CCCN1C(=O)N[C@H]1C2C=CC(C2)C1C(=O)N1CCC[C@H]1C(=O)N[C@@H](C)C(=O)N[C@H](C(=O)OC)C(C)C (stereo partly drawn) | > 100 |  | > 100 | 56.4 | > 100 | > 100 | > 100 | > 100 | > 100 | > 100 |  |  |  |  |  |  |  |  |  |
| Oc1cc(C2OCCCO2)cc(O)c1O | > 100 | > 100 | > 100 | > 100 | > 100 | > 100 | > 100 |  |  | > 100 |  |  |  |  |  |  |  |  |  |
| CCCC(C)NC1=C(NC(C)=O)C(=O)c2ccccc2C1=O (stereo not drawn) | > 100 | > 100 | > 100 | > 100 | > 100 | > 100 | > 100 |  |  | > 100 |  |  |  |  |  |  |  |  |  |
